Results taken from patent US20160374908A1, “SKIN CARE COMPOSITION AND METHODS OF USING THE SAME” (The Procter & Gamble Company, priority 2015, published 2016).

Columns and labels:
[1] = test system: human neonatal keratinocytes; assay: Melanosome Uptake Assay; type: cell-based
Method: Carboxyfluorescein diacetate (“CFDA”) (available from Sigma, St. Louis, Mo.) labeled melanosomes were prepared by incubating CFDA dye in SKMEL-188 culture cells (available from Sloan Kettering Institute) for 2 days at 37° C. in a THERMO SCIENTIFIC FORMA brand CO2 incubator (available from Fisher Scientific, Waltham, Mass.). On day 3 of the test, melansomes were isolated from SKMEL-188 cells by step density centrifugation with sucrose solutions layered with different densities, which is well known in the art. Melanosomes were taken from the 1.6 M-2.0 M sucrose layers. The isolated melanosomes were placed in each well of a 6-well plate along with human neonatal keratinocytes (available from Thermo) (approximately 50,000 keratinocytes/well). 2 ml of the appropriate medium (i.e., the test composition, the positive control or the vehicle control) was added to each of the wells to produce […] (i.e., 3 replicates of each of three composition tested). The test composition was made by adding nicotinamide riboside chloride powder (available from Chromadex, Irvine, Calif.) to EPILIFE brand keratinocyte medium to produce a solution of 0.0025 w/v % nicotinamide riboside. The positive control was made by adding niacinamide to EPILIFE brand keratinocyte medium to produce a solution of 0.0025 w/v % niacinamide. Unmodified keratinocyte medium was used as a vehicle control. The resulting test plates were incubated for two days in EPILIFE brand keratinocyte medium. On day 6 of the test, the keratinocytes were detached from the plates using trypsin and fluorescent-label counted by flow cytometry using an LSRFortessa brand flow cytometer (available from Becton Dickinson, NJ). The percentage of cells that had fluorescence (from CFDA label) was used as a metric to measure incorporation of melanosome uptake. Keratinocytes containing detectable levels of CFDA were counted as a fraction of all keratinocytes passing through the flow cytometer (indicated as % uptake in Table 2). The higher the percentage, the higher level of melanosome uptake into the keratinocytes.

[2] = test system: HMGB1 released from keratinocytes exposed to UVB; assay: In Vitro UV Stress Test (HMGB1 ELISA); type: cell-based, human; details: for amount of HMGB1 released compared to untreated UVB exposed cells: UVB exposed keratinocytes, 0.001 w/v %
Method: Human neonatal keratinocytes (available from Thermo) were placed in each well of 4 12-well plates. Each well also contained 2 ml of EPILIFE brand keratinocyte medium. The plates were incubated at 37° C. in a CO2 incubator until cell confluency reached 70%. At this point, the cells, except for the negative control, were exposed to 15 mJ/cm^2 UVB (i.e., UV radiation with a wavelength of from 315-280 nm) in a BIO-SUN brand UV irradiating system (available from Vilber Lourmat, France). After UVB exposure, the keratinocyte medium in each well was replaced with an appropriate medium (i.e., niacinamide medium, nicotinamide riboside medium or a control medium) to produce the test plates. The test plates were incubated for 24 hours at 37° C. in a CO2 incubator, after which the medium in each cell was removed and the HMGB1 level measured using a conventional HMGB1 ELISA kit (REF #ST51011, available from IBL International, Canada) according to the manufacturer's instructions. The test media were made by adding either niacinamide or nicotinamide riboside to EPILIFE brand keratinocyte medium to produce a 0.001 w/v % solution. The control medium was unmodified keratinocyte medium.

[3] = test system: pigmented spots in facial skin; assay: Oral nicotinamide riboside, appearance of pigmented spots after cessation of the treatment period; type: in vivo; details: oral composition
From the text: In some instances, the method herein includes identifying a target portion of facial skin in need of treatment and orally ingesting a safe and effective amount of nicotinamide riboside over the course of a multi-day, or multi-week, or multi-month, or multi-year treatment period. Nicotinamide riboside may be incorporated into a suitable oral composition. The target portion of facial skin is any portion of facial skin (e.g., periorbital, cheek, chin, perioral, nose, forehead, etc.) where improvement in the appearance of skin is desired (e.g., reduction in size and/or increase in lightness of hyperpigmented spot). […] In this way, the present compositions may be used as a preventative measure for skin pigmentation disorders. The oral composition may be ingested one time per day, two times per day, three times per day (e.g., around each meal), four times per day or more during the treatment period. The daily dosage of nicotinamide riboside may be greater than 100 mg, preferably greater than 250 mg, more preferably greater than 300 mg, most preferably greater than 400 mg or 500 mg. The weekly dosage may be greater than 2100 mg/week, 2800 mg/week, or 3500 mg/week. The daily dosage may be provided in a single unit dosage form (e.g., a single pill, capsule or tablet) or may be provided in smaller unit dosage forms if the oral composition is intended to be taken more than once per day. […]

Compound | rate of melanosome uptake compared to the vehicle control ([1]; 0.0025 w/v %) | amount of HMGB1 released compared to untreated UVB exposed cells [2] | HMGB1 Released ([2]; UV exposure 15 mJ/cm^2 UVB, 0.001% in medium, 24 hours) [pg/mL] | % Uptake ([1]; 0.0025 w/v % in keratinocyte medium, fraction of keratinocytes with detectable CFDA-labeled melanosomes, flow cytometry) [%] | Rate of Melanosome Uptake Versus Control ([1]; 0.0025 w/v %, vehicle control = 100%) [%] | time after cessation of the treatment period to regression to baseline in the appearance of the pigmented spots [3] [weeks]
NC(=O)c1cccnc1 [Niacinamide, niacinamide, reference compound] | inhibit the rate of melanosome uptake | no significant effect | – | – | – | –
NC(=O)c1ccc[n+]([C@@H]2O[C@H](CO)[C@@H](O)[C@H]2O)c1.[Cl-] [Nicotinamide Riboside Chloride, nicotinamide riboside chloride] | – | – | 11.5 | – | – | –
Nicotinamide riboside | increase the rate of melanosome uptake | released less HMGB1 | – | 67 | 186 | ≤ 2
